Details of data set [1]: species or system Sprague-Dawley rats. The note with it: rat, in vivo, sc, 20 mg/kg. The method, then: The concentration of the full-length oligonucleotide as well as the total oligonucleotide concentration (including the degraded form) was measured. The method used is a modification of previously published methods (Leeds et al., 1996; Geary et al., 1999) which consist of a phenol-chloroform (liquid-liquid) extraction followed by a solid phase extraction. An internal standard (ISIS 355868, a 27-mer 2′-O-methoxyethyl modified phosphorothioate oligonucleotide, […], designated herein as SEQ ID NO: 270) was added prior to extraction. […] The results are presented in Tables 98 and 99, expressed as μg/g liver or kidney tissue.

The test system of data set [2] is human Factor XI mRNA. Description: Antisense inhibition in HepG2 cells by microwalk gapmers, 75 nM, lipofectin (Example 3). Format: cell-based. The note with it: HepG2 cells, 75 nM, oligonucleotides targeted to nucleobases 1275 to 1318 of SEQ ID NO: 1. Put shortly:
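HepG2 cells (10,000 per well) were transfected with 75 nM gapmer using lipofectin and treated for about 24 h. Factor XI mRNA was quantified by real-time PCR, normalized to RiboGreen total RNA and expressed as percent inhibition versus untreated controls.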

Data set [3] concerns human Factor XI mRNA. Put plainly: Antisense inhibition in HepG2 cells by microwalk gapmers, 8,000 nM, electroporation (Example 14). The format is cell-based. The conditions noted are these: HepG2 cells, 8,000 nM. Put shortly:
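HepG2 cells electroporated with 8,000 nM 2′-MOE phosphorothioate gapmer (5-10-5, 5-8-5 or 6-8-6). Factor XI mRNA measured after ~24 h by qRT-PCR, normalised to RIBOGREEN total RNA. Reported as percent inhibition versus untreated cells.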

Data set [4] is described as follows: Cynomolgus monkeys: body and organ weights (Example 29). The format is in vivo. The conditions noted are these: for Body weight: escalating doses 5, 10, 25 mg/kg s.c. How it is done: (§1) Groups, each consisting of two male and three female monkeys, were injected subcutaneously with ISIS 416838, ISIS 416850, ISIS 416858, ISIS 416864, or ISIS 417002 in escalating doses. Antisense oligonucleotide was administered to the monkeys at 5 mg/kg three times per a week for week 1; 5 mg/kg twice per week for weeks 2 and 3; 10 mg/kg three times per week for week 4; 10 mg/kg twice per week for weeks 5 and 6; 25 mg/kg three times per week for week 7; and 25 mg/kg twice per week for weeks 8, 9, 10, 11, and 12. One control group, consisting of two male and three female monkeys, was injected subcutaneously with PBS according to the same dosing regimen. An additional experimental group, consisting of two male and three female monkeys, was injected subcutaneously with ISIS 416850 in a chronic, lower dose regimen. Antisense oligonucleotide was administered to the monkeys at 5 mg/kg three times per week for week 1; 5 mg/kg twice per week for week 2 and 3; 10 mg/kg three times per week for week 4; and 10 mg/kg twice per week for weeks 5 to 12. Body weights were measured weekly. Blood samples were collected 14 days and 5 days before the start of treatment and subsequently once per week for Factor XI protein activity analysis in plasma and measurement of various hematologic factors. On day 85, the monkeys were euthanized by exsanguination while under deep anesthesia, and organs harvested for further analysis.
Body weights were taken once weekly throughout the dosing regimen. […] Organ weights were taken after the animals were euthanized and livers, kidneys and spleens were harvested and weighed. […] The ISIS oligonucleotide, ISIS 416850, given with the chronic dose regimen is distinguished from the other oligonucleotides with an asterisk (*).

The next data set relates to Factor XI mRNA. Put plainly: Cynomolgus monkeys, 25 mg/kg: liver Factor XI RNA analysis (Example 30). Format: in vivo. The note with it: cynomolgus monkeys, day 55, in comparison to the PBS control. How it is done: (§2) Groups, each consisting of two male and two female monkeys, were injected subcutaneously with 25 mg/kg of ISIS 416850, ISIS 449709, ISIS 445522, ISIS 449710, ISIS 449707, ISIS 449711, ISIS 449708, 416858 and ISIS 445531. Antisense oligonucleotide was administered to the monkeys at 25 mg/kg three times per week for week 1 and 25 mg/kg twice per week for weeks 2 to 8. A control group, consisting of two male and two female monkeys was injected subcutaneously with PBS according to the same dosing regimen. Body weights were taken 14 days and 7 days before the start of treatment and were then measured weekly throughout the treatment period. Blood samples were collected 14 days and 5 days before the start of treatment and subsequently several times during the dosing regimen for measurement of various hematologic factors. On day 55, the monkeys were euthanized by exsanguination while under deep anesthesia, and organs harvested for further analysis.
On day 55, RNA was extracted from liver tissue for real-time PCR analysis of Factor XI using primer probe set LTS00301. Results are presented as percent inhibition of Factor XI, relative to PBS control.

In data set [5] the test system is Factor XI protein. Description: Cynomolgus monkeys: plasma Factor XI protein ELISA (Example 30). The format is in vivo. The conditions noted are these: cynomolgus monkeys, Example 30. How it is done:
as §2
(§3) Plasma samples from all monkey groups taken on different days were analyzed by a sandwich-style ELISA assay (Affinity Biologicals Inc.) using an affinity-purified polyclonal anti-Factor XI antibody as the capture antibody and a peroxidase-conjugated polyclonal anti-Factor XI antibody as the detecting antibody. Monkey plasma was diluted 1:50 for the assay. Peroxidase activity was expressed by incubation with the substrate o-phenylenediamine. The color produced was quantified using a microplate reader at 490 nm and was considered to be proportional to the concentration of Factor XI in the samples.
The results are presented in Table 148, expressed as percentage reduction relative to that of the PBS control.
For orientation: An ELISA detects its analyte on a solid surface through an enzyme-linked reagent.

In data set [6] the test system is IL-1β, IL-6, IFN-γ, TNF-α, IL-8, MIP-1α, MCP-1, MIP-10, RANTES. Put plainly: Cynomolgus monkeys: cytokine and chemokine assays (Example 30). The format is in vivo. The method, then:
as §2
Blood samples obtained from all monkey groups were sent to Pierce Biotechnology (Woburn, Mass.) for measurements of chemokine and cytokine levels. Levels of IL-1β, IL-6, IFN-γ, and TNF-α were measured using the respective primate antibodies and levels of IL-8, MIP-1α, MCP-1, MIP-10 and RANTES were measured using the respective cross-reacting human antibodies. Measurements were taken 14 days before the start of treatment and on day 55, when the monkeys were euthanized.

Data set [7] has as its system Factor XI protein. Description: Cynomolgus monkeys: plasma Factor XI protein ELISA (Example 29). The format is in vivo. The conditions noted are these: for Inhibition of Factor XI protein relative to the PBS control: escalating doses 5, 10, 25 mg/kg s.c. How it is done: as §1, §3
The results are presented in Table 122, expressed as percentage reduction relative to that of the PBS control.

Data set [8] in a line: Cynomolgus monkeys: hematology assays (Example 29). The format is in vivo. The method, then: as §1
The ISIS oligonucleotide, ISIS 416850, given with the chronic dose regimen is distinguished from the other oligonucleotides with an asterisk (*).

Data set [9] can be described thus: Tolerability in CD1 mice: body and organ weight (Example 25). The format is in vivo. The conditions noted are these: 50 mg/kg s.c. twice per week for 6 weeks; for Kidney weight as percentage of body weight / Liver weight as percentage of body weight / Spleen weight as percentage of body weight: end of study.
Where [10] appears, read: day −14 (before start of treatment).

In the oligonucleotide strings, read from the 5' end, every base follows the letter of its sugar. An asterisk marks phosphorothioate; unmarked linkages are phosphodiester. Other units and linkages are bracketed, terminal groups are in braces. A string of capitals states the bases alone. e = 2'-O-(2-methoxyethyl) (MOE); [5mC] = 5-methylcytosine; d = 2'-deoxy (DNA)

As to “416848 (antisense CACAGTTTCTGGCAGGCCTC; 5-10-5 gapmer, wing sugar chemistry not given here, further chemistry not given here) [compound 416848]”, in [1], the “Half-life in the liver and kidney” value came out at 24 days. Moreover, the “% inhibition of human Factor XI mRNA levels” value in the data set with human Factor XI mRNA [2] is on record as 86%. Also, in the data set on human Factor XI mRNA [3], the “Percent inhibition of human Factor XI mRNA levels” value is on record as 87%.

Regarding “ISIS 416858: gapmer of Table 8 (antisense eA*e[5mC]*eG*eG*e[5mC]*dA*dT*dT*dG*dG*dT*dG*d[5mC]*dA*d[5mC]*eA*eG*eT*eT*eT)”, the “spleen weight (in words)” value in data set [4] (Example 29) is given as “increase in spleen weight”. Further, the Kidney weight in data set [4] (after euthanasia) was 13 g. Besides, the Liver weight in data set [4] (after euthanasia) is 60 g. Besides, in data set [4] (after euthanasia), the Spleen weight came out at 12 g. Moreover, the Body weight was 2912 g in data set [4] (day 1); 2740 g in [4] (day 8); 2760 g in data set [4] (day 15); 2800 g in [4] (day 22); 2763 g in [4] (day 29); 2584 g in data set [4] (day 36). Also, the Body weight in data set [4] (day 43) is reported as 2607 g; in [4] (day 50) it was 2646 g; in data set [4] (day 57), 2617 g; in data set [4] (day 64), 2618 g; in data set [4] (day 71), 2865 g; in data set [4] (day 78) it was 2713 g. For the same substance, in the data set on Factor XI mRNA, the “Factor XI mRNA in liver (in words)” value is listed as “significant reduction of Factor XI mRNA”. The “Factor XI protein levels (in words)” value in the data set with Factor XI protein [5] and with Factor XI protein [7] (Example 29) was “time-dependent decrease in protein levels” each time. Further, the IL-1β level in data set [6] (25 mg/kg s.c., day 55) amounted to 28 pg/mL; in data set [6] (setting [10]), 103 pg/mL. Further, the MIP-1β level in data set [6] (25 mg/kg s.c., day 55) is listed as 47 pg/mL; in data set [6] (setting [10]), 37 pg/mL. Besides, the “Inhibition of Factor XI protein relative to the PBS control” value with Factor XI protein [7] (day 8) amounted to 6%; in the data set on Factor XI protein [7] (day 15), 16%; in the data set on Factor XI protein [7] (day 22) it was 23%; with Factor XI protein [7] (day 29) it was 28%; in the data set on Factor XI protein [7] (day 36), 35%; with Factor XI protein [7] (day 43) it was 39%. Moreover, the “Inhibition of Factor XI protein relative to the PBS control” value was determined as 49% with Factor XI protein [7] (day 50); 60% in the data set with Factor XI protein [7] (day 57); 68% in the data set with Factor XI protein [7] (day 64); 71% in the data set with Factor XI protein [7] (day 71); 73% in the data set with Factor XI protein [7] (day 78); 78% in the data set on Factor XI protein [7] (day 85). For the same substance, the “Inhibition of Factor XI protein relative to the PBS control” value with Factor XI protein [7] (day −5 (before treatment)) and with Factor XI protein [7] (day −14 (before treatment)) was 0% each time. In addition, the platelet count turned out to be 391000 µL⁻¹ in data set [8] (day 8); 400000 µL⁻¹ in data set [8] (day 15); 316000 µL⁻¹ in data set [8] (day 22); 336000 µL⁻¹ in data set [8] (day 29); 371000 µL⁻¹ in [8] (day 36); 342000 µL⁻¹ in data set [8] (day 43). The platelet count in data set [8] (day 50) is 331000 µL⁻¹; in data set [8] (day 57), 333000 µL⁻¹; in data set [8] (day 64) it was 295000 µL⁻¹; in data set [8] (day 71) it was 286000 µL⁻¹; in data set [8] (day 78), 262000 µL⁻¹; in data set [8] (day 85), 267000 µL⁻¹. Further, the platelet count in data set [8] (day −5) is 463000 µL⁻¹; in data set [8] (day −14), 419000 µL⁻¹.

In the case of “ISIS 445522: microwalk gapmer of Table 51 (antisense eG*e[5mC]*eA*e[5mC]*eA*dG*dT*dT*dT*d[5mC]*dT*dG*dG*e[5mC]*eA*eG*eG*e[5mC])”, in the data set with Factor XI mRNA, the “Factor XI mRNA in liver (in words)” value was “significant reduction of Factor XI mRNA”. Moreover, the “Factor XI protein levels (in words)” value in the data set on Factor XI protein [5] is recorded as “time-dependent decrease in protein levels”. Besides, in data set [6] (25 mg/kg s.c., day 55), the IL-1β level is on record as 341 pg/mL and the MIP-1β level is listed as 63 pg/mL. In data set [6] (setting [10]), this substance came in with an IL-1β level of 188 pg/mL and an MIP-1β level of 27 pg/mL. Further, in data set [9], the “Body weight (increase over PBS control weight before start of treatment)” value is listed as 11 g, the “Kidney weight as percentage of body weight” value was found to be 1.7%, the “Liver weight as percentage of body weight” value is 6% and the “Spleen weight as percentage of body weight” value was found to be 0.4%.

In the case of “ISIS 445531: microwalk gapmer of Table 51 (antisense eG*eG*e[5mC]*eA*eT*dT*dG*dG*dT*dG*d[5mC]*dA*d[5mC]*eA*eG*eT*eT*eT)”, in the data set with Factor XI mRNA, the “Factor XI mRNA in liver (in words)” value was “significant reduction of Factor XI mRNA”. In addition, in [6] (25 mg/kg s.c., day 55), the IL-1β level was 155 pg/mL and the MIP-1β level is 84 pg/mL. In data set [6] (setting [10]), this substance returned an IL-1β level of 101 pg/mL and an MIP-1β level of 22 pg/mL. Moreover, in data set [9], the “Body weight (increase over PBS control weight before start of treatment)” value stood at 10 g, the “Kidney weight as percentage of body weight” value is listed as 1.5%, the “Liver weight as percentage of body weight” value is reported as 6% and the “Spleen weight as percentage of body weight” value stood at 0.5%.

The values are drawn from US20120083522A1, “MODULATION OF INFLAMMATORY RESPONSES BY FACTOR XI” (Isis Pharmaceuitcals, inc., priority 2009, published 2012).
